{
  "source": "ChEMBL document CHEMBL1255357",
  "about": "“Enrichment of fluoroquinolone-resistant Staphylococcus aureus: oscillating ciprofloxacin concentrations simulated at the upper and lower portions of the mutant selection window” (Antimicrob Agents Chemother, 2008)",
  "key": {"Staphylococcus aureus [1]": {"tested_on": "Staphylococcus aureus", "test": "Antimicrobial activity against methicillin-resistant Staphylococcus aureus ATCC 43300 assessed as mutant prevention concentration after 48 hrs", "format": "functional, organism-based"}, "Staphylococcus aureus [2]": {"tested_on": "Staphylococcus aureus", "test": "Antimicrobial activity against methicillin-resistant Staphylococcus aureus ATCC 6538 assessed as mutant prevention concentration after 48 hrs", "format": "functional, organism-based"}},
  "note": "Active and inactive are the calls of the source. The calls are words filed in the database; no cut-off is given here.",
  "data": [
    {"compound": "O=C(O)c1cn(C2CC2)c2cc(N3CCNCC3)c(F)cc2c1=O", "values": [
      {"measurement": "Activity", "setting": "Staphylococcus aureus [1]", "result": "Active"},
      {"measurement": "Activity", "setting": "Staphylococcus aureus [2]", "result": "Active"}
    ]}
  ]
}
